Patent US20230113037A1 (Bayer Aktiengesellschaft, priority 2019, published 2023)
Read-outs that look alike come from different tables or passages of the source.

How the values were obtained:
AHR [1] = biological target: T1, AHR (Mus musculus, UniProt P30561); test: In vitro assay 3: antagonism in mouse cell line (AHR transactivation, firefly luciferase reporter, kynurenic acid prestimulated); assay type: cell-based
T1 sequence (P30561 1-848 P471L/N533S/M589L): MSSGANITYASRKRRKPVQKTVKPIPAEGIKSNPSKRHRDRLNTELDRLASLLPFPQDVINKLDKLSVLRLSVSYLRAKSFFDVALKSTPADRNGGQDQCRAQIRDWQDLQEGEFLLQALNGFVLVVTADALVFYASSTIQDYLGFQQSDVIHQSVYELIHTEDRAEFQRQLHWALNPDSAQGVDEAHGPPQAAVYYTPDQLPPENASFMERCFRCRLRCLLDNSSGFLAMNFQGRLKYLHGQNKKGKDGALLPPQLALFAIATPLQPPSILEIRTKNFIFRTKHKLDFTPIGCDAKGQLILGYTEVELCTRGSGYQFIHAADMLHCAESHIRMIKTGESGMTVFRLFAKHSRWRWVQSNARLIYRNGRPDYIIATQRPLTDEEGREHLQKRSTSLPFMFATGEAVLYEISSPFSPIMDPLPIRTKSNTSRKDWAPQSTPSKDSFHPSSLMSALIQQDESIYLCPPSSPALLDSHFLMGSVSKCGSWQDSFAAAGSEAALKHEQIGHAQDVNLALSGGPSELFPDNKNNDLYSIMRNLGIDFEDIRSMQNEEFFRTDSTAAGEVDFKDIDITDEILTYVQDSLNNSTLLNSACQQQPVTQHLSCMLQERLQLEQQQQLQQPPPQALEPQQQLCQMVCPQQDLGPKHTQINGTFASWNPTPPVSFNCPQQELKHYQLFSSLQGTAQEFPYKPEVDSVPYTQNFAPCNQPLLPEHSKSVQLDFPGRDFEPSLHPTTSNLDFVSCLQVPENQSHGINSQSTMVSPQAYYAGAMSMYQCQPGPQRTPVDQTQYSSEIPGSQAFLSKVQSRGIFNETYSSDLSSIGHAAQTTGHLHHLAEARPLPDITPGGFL
How it was run: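 Cells were first stimulated with kynurenic acid, then exposed to test compound, after which firefly luciferase from a DRE-containing AHR reporter was read out. Signal was scaled between positive and negative controls. Cells not given kynurenic acid provided the inhibition reference.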

AHR [2] = biological target: T2, AHR (Homo sapiens, UniProt P35869); test: In vitro assay 1: antagonism in human cell line (AHR transactivation, firefly luciferase reporter, kynurenic acid prestimulated); assay type: cell-based; conditions: AHR Antagonism Human IC50 [M]
T2 construct: U87 MG glioblastoma cells (ATCC #HTB-14) endogenously expressing AHR; endogenous in cells; host or cells: U87 MG glioblastoma cells (ATCC #HTB-14)
T2 sequence (P35869 11-848): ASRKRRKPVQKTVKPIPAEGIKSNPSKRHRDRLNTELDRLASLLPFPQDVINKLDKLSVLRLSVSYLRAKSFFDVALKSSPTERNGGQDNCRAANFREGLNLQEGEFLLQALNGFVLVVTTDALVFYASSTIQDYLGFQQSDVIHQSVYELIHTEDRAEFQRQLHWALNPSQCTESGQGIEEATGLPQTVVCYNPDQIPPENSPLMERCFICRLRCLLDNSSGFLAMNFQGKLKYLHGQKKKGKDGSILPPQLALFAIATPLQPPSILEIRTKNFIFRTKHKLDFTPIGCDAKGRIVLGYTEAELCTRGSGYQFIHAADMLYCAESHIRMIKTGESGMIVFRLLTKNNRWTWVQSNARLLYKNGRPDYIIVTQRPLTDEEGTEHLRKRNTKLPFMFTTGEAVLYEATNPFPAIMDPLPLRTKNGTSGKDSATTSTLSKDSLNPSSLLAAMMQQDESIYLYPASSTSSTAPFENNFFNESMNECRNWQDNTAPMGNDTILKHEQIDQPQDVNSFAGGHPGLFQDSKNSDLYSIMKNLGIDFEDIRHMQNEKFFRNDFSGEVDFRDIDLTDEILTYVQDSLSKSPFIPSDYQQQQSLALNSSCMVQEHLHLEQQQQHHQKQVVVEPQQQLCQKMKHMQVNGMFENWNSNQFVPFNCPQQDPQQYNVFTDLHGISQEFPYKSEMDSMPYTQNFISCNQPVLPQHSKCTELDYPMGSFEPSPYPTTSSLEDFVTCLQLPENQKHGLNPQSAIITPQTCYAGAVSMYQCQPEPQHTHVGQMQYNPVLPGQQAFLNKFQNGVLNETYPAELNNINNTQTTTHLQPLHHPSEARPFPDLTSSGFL
How it was run: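 U87 MG + DRE-firefly/constitutive-Renilla stable reporters; kynurenic acid prestim; dual-luc read; Renilla = tox; normalized vs pos/neg controls (pos: 150 μM KYNA + 5 μM staurosporine).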

[3] = mouse Hepa 1c1c7 cells, 200 μM kynurenic acid, 20 hours, read-out: AHR Antagonism Mouse IC50
[4] = Hepa 1c1c7 cells, 200 μM kynurenic acid, 20 hours, firefly luciferase reporter, read-out: AHR Antagonism Mouse IC50

Row | SMILES | IC50 (AHR [1]; [3]) [nM] | IC50 (AHR [2]) [M] | also measured
1 | Cn1cc(-c2nc3c4cccc(C5CC5)c4nc(N[C@@H]4CCCCNC4=O)n3n2)cn1 [Example 207, (3R)-3-{[7-cyclopropyl-2-(1-methyl-1H-pyrazol-4-yl)[1,2,4]triazolo[1,5-c]quinazolin-5-yl]amino}azepan-2-one] | 242 | 1.77e-08 | –
2 | C[C@@H](Nc1nc2c(Br)cccc2c2nc(-c3cnn(C)c3)nn12)C(=O)NCC(C)(C)N [Example 790, N-(2-amino-2-methylpropyl)-N^2-[7-bromo-2-(1-methyl-1H-pyrazol-4-yl)[1,2,4]triazolo[1,5-c]quinazolin-5-yl]-D-alaninamide] | – | – | IC50 (AHR [1]; [4]): 402 nM; IC50 (AHR [2]; firefly luciferase reporter): 4.14e-07 M
3 | Cc1cc(-c2nc3c4ccccc4nc(N[C@@H]4CCCNC4=O)n3n2)cs1 [Example 354, (3R)-3-{[2-(5-methylthiophen-3-yl)[1,2,4]triazolo[1,5-c]quinazolin-5-yl]amino}piperidin-2-one] | 78.2 | 4.05e-08 | –
4 | Cc1nn(C2CC2)c(C)c1-c1nc2c3cccc(C(F)(F)F)c3nc(N[C@@H]3CCCCNC3=O)n2n1 [Example 745, (3R)-3-{[2-(1-cyclopropyl-3,5-dimethyl-1H-pyrazol-4-yl)-7-(trifluoromethyl)[1,2,4]triazolo[1,5-c]quinazolin-5-yl]amino}azepan-2-one] | 1.14 | 4.41e-09 | –
5 | COc1ccc(-c2nc3c4cc(OC)ccc4nc(N[C@@H]4CNCCNC4=O)n3n2)cc1 [Example 279, (6R)-6-{[9-methoxy-2-(4-methoxyphenyl)[1,2,4]triazolo[1,5-c]quinazolin-5-yl]amino}-1,4-diazepan-5-one] | 180 | 3.08e-07 | –
6 | CC[C@@H](Nc1nc2ccccc2c2nc(-c3cc(C(F)(F)F)ccn3)nn12)C(N)=O [Example 367, (2R)-2-({2-[4-(trifluoromethyl)pyridin-2-yl][1,2,4]triazolo[1,5-c]quinazolin-5-yl}amino)butanamide] | 10.5 | 1.91e-07 | –
7 | CCOc1ccc(-c2nc3c4ccccc4nc(N[C@@H]4CCCCNC4=O)n3n2)cc1 [Example 616, (3R)-3-{[2-(4-ethoxyphenyl)[1,2,4]triazolo[1,5-c]quinazolin-5-yl]amino}azepan-2-one] | 1.07 | 7.6e-10 | –
8 | O=C1NCCCC1Nc1nc2ccccc2c2nc(-c3cccc(F)c3)nn12 (stereo not drawn) [Example 8, 3-{[2-(3-fluorophenyl)[1,2,4]triazolo[1,5-c]quinazolin-5-yl]amino}piperidin-2-one] | 105 | 5.44e-08 | –
9 | O=C1NCCCC[C@H]1Nc1nc2ccccc2c2nc(-c3cnn(C4CC4)c3)nn12 [Example 535, (3R)-3-{[2-(1-cyclopropyl-1H-pyrazol-4-yl)[1,2,4]triazolo[1,5-c]quinazolin-5-yl]amino}azepan-2-one] | 2.57 | 5.13e-09 | –
10 | C[C@@H](Nc1nc2c(Br)cccc2c2nc(-c3cnn(C)c3)nn12)C(=O)NCCN1CCOCC1 [Example 782, N^2-[7-bromo-2-(1-methyl-1H-pyrazol-4-yl)[1,2,4]triazolo[1,5-c]quinazolin-5-yl]-N-[2-(morpholin-4-yl)ethyl]-D-alaninamide] | 79.7 | 1.29e-07 | –
11 | CCc1noc(-c2nc3c4ccccc4nc(N[C@@H]4CCCCNC4=O)n3n2)n1 [Example 132, (3R)-3-{[2-(3-ethyl-1,2,4-oxadiazol-5-yl)[1,2,4]triazolo[1,5-c]quinazolin-5-yl]amino}azepan-2-one] | 26.3 | 2.15e-08 | –
12 | C[C@@H](Nc1nc2c(Br)cccc2c2nc(-c3cnn(C)c3)nn12)C(=O)N1CCNCC1 [Example 985, (2R)-2-{[7-bromo-2-(1-methyl-1H-pyrazol-4-yl)[1,2,4]triazolo[1,5-c]quinazolin-5-yl]amino}-1-(piperazin-1-yl)propan-1-one hydrogen chloride (1/1)] | – | – | IC50 (AHR [1]; [4]): 95 nM; IC50 (AHR [2]; firefly luciferase reporter): 6.49e-08 M
13 | COc1cccc(-c2nc3c4ccccc4nc(NC4CCCNC4=O)n3n2)c1 (stereo not drawn) [Example 77, 3-{[2-(3-methoxyphenyl)[1,2,4]triazolo[1,5-c]quinazolin-5-yl]amino}piperidin-2-one] | 52.1 | 6.52e-08 | –
14 | COC(=O)c1cccc2c1nc(N[C@@H]1CCCCNC1=O)n1nc(-c3ccc(OC)cc3)nc21 [Example 250, Methyl 2-(4-methoxyphenyl)-5-{[(3R)-2-oxoazepan-3-yl]amino}[1,2,4]triazolo[1,5-c]quinazoline-7-carboxylate] | 135 | 1.43e-08 | –
15 | COc1ccc(-c2nc3c4cccc(C5(C(F)(F)F)CC5)c4nc(N[C@@H]4CNCCNC4=O)n3n2)cc1 [Example 431, (6R)-6-({2-(4-methoxyphenyl)-7-[1-(trifluoromethyl)cyclopropyl][1,2,4]triazolo[1,5-c]quinazolin-5-yl}amino)-1,4-diazepan-5-one] | 60.6 | 1.43e-08 | –
16 | CC[C@H](Nc1nc2ccccc2c2nc(-c3ccccc3OC(F)F)nn12)C(N)=O [Example 475, (2S)-2-({2-[2-(difluoromethoxy)phenyl][1,2,4]triazolo[1,5-c]quinazolin-5-yl}amino)butanamaide] | – | > 2e-05 | IC50 (AHR [1]; read-out: AHR Antagonism Mouse IC50, mouse Hepa 1c1c7 cells, 200 μM kynurenic acid, 20 hours): 71.7 nM
17 | O=C1NCC[C@H]1Nc1nc2c(Br)cccc2c2nc(-c3ccccc3OC(F)(F)F)nn12 [Example 219, (3R)-3-({7-bromo-2-[2-(trifluoromethoxy)phenyl][1,2,4]triazolo[1,5-c]quinazolin-5-yl}amino)pyrrolidin-2-one] | 7.14 | 8.15e-08 | –
18 | O=C1NCCNC[C@H]1Nc1nc2ccccc2c2nc(-c3cnn(CC4CC4)c3)nn12 [Example 416, (6R)-6-({2-[1-(cyclopropylmethyl)-1H-pyrazol-4-yl][1,2,4]triazolo[1,5-c]quinazolin-5-yl}amino)-1,4-diazepan-5-one] | 354 | 2.1e-06 | –
19 | O=C1NCCCC[C@H]1Nc1nc2ccccc2c2nc(-c3cnn(CCCO)c3)nn12 [Example 598, (3R)-3-({2-[1-(3-hydroxypropyl)-1H-pyrazol-4-yl][1,2,4]triazolo[1,5-c]quinazolin-5-yl}amino)azepan-2-one] | 171 | 2.8e-07 | –
20 | CC[C@@H](Nc1nc2ccccc2c2nc(-c3cnccc3C(F)(F)F)nn12)C(N)=O [Example 491, (2R)-2-({2-[4-(trifluoromethyl)pyridin-3-yl][1,2,4]triazolo[1,5-c]quinazolin-5-yl}amino)butanamide] | 50.5 | 9.72e-08 | –
21 | COc1ccc(-c2nc3c4cccc(Br)c4nc(N[C@@H]4CS(=O)(=O)CCNC4=O)n3n2)cc1 [Example 851, (6S)-6-{[7-bromo-2-(4-methoxyphenyl)[1,2,4]triazolo[1,5-c]quinazolin-5-yl]amino}-1λ^6,4-thiazepane-1,1,5-trione] | – | – | IC50 (AHR [1]; read-out: AHR Antagonism Mouse IC50, Hepa 1c1c7 cells, 200 μM kynurenic acid, 20 hours, firefly luciferase reporter): 1.76 nM; IC50 (AHR [2]; firefly luciferase reporter): 9.17e-10 M
